What was measured:
[1] = Stability of the five analytes in rat plasma; assay type: in vitro ADME; conditions: rat; for Long-term stability, Mean: 4 weeks; for Short-term stability, Mean: 5 h; for Auto-sampler stability, Mean: 24 h
Experimental: Stock standards of A5, A6, DSS, TFSA, TMCA and IS were prepared in methanol at a concentration of 1 mg/mL. A series of working standard solutions of the targeted compounds ranging from 10 to 20,000 ng/mL and the IS solution at 600 ng/mL were prepared by diluting the stock solutions with methanol and maintained at −20 °C. Calibration standards were freshly prepared by spiking the series of standard solutions (30 μL) including the IS into blank rat plasma (270 μL) to achieve concentrations of 1, 10, 50, 100, 500, 1000, 1600 and 2000 ng/mL. Quality control (QC) samples were prepared independently at low (2 ng/mL), medium (600 ng/mL) and high (1600 ng/mL) concentrations following the same method for the five compounds.
Stability studies included short-term stability (5 h at room temperature, i.e. 25 °C), freeze-thaw stability (three consecutive freeze-thaw cycles from −20 °C to room temperature), autosampler stability (24 h storage in the autosampler at 4 °C) and long-term stability (4 weeks storage at −80 °C). The stability data of all analytes are presented in Supplementary Table S4.

[2] = Pharmacokinetics and absolute bioavailability of five compounds after oral and i.v. administration (UHPLC-MS/MS); assay type: in vivo; conditions: rat, in vivo; for AUCΔ0-t (dose-normalized) / AUCΔ0-∞ (dose-normalized) / CΔmax (dose-normalized) / half-life / Tmax: SD
Experimental: (§1) A Thermo Hypersil Gold C18 column (3.0 × 100 mm, i.d.; 3 μm) was used for chromatographic separation. An aqueous 10 mM ammonium acetate solution (A) and acetonitrile (B) were selected as the mobile phase components. The optimal gradient program involved the following steps: 5% B (0–1 min), changing to 85% B (1–3.5 min), 85% B (3.5–4.0 min), changing to 5% B (4.0–4.1 min) and 5% B (4.1–5.0 min). The flow rate was set to 0.4 mL/min, the autosampler was maintained at 4 °C and the injection volume was 5 μL.
(§2) UHPLC-MS/MS was conducted by an Applied Biosystems (AB) Sciex Exion LC system (Foster City, CA) connected to a 6500 + triple quad tandem mass spectrometer with an electrospray ionization source. All detection and quantifications were carried out in positive multiple reaction monitoring (MRM) mode. The optimized parameters were programmed as follows: ion source temperature, 500 °C; curtain gas pressure, 30 kPa; ion source gas 1 pressure, 55 kPa; ion source gas 2 pressure, 55 kPa; and ion spray voltage, […]. The chemical structures and ion mass spectra of targeted compounds are shown in Figure 1. The precursor ion and product ion were m/z 517.1 → 174.9 for A5, m/z 547.0 → 204.9 for A6, m/z 753.2 → 205.2 for DSS, m/z 681.3 → 443.3 for TFSA, m/z 236.8 → 103.2 for TMCA and m/z 136.9 → 92.9 for IS. All data were acquired by using AB Sciex Analyst software (version 1.6.3).
(§3) After thawing the frozen blood samples at room temperature, a 100 μL aliquot of plasma was spiked with 50 μL of the IS working solution in 2 mL EP tubes, and 750 μL of methanol was added into each of the tubes. Then, these tubes were mixed on a multi-tube Vortexer for 0.5 min before centrifugation at 11,800×g for 10 min. Finally, 200 μL of the obtained supernatant was transferred to a fresh autosampler vial, and then 5 μL of the sample was injected for analysis.
The SD rats were randomly divided into oral and i.v. groups for A5, A6, DSS, TFSA and TMCA administration (n = 6 in each group). The oral doses of A5, A6, DSS, TFSA and TMCA groups were 7.40, 11.60, 16.00, 50.00 and 3.11 mg/kg, respectively, and the corresponding i.v. doses were 0.74, 1.16, 1.60, 5.00 and 0.31 mg/kg, respectively. Blood samples were collected from the suborbital vein into heparinized tubes before and 0, 0.083, 0.17, 0.25, 0.5, 1, 2, 3, 5 and 8 h after administration. The treatment method of blood samples was the same as that mentioned above.
(§4) The elementary pharmacokinetic parameters of plasma samples were analyzed by DAS 2.0 pharmacokinetic software. One-way analysis of variance (ANOVA) was used for statistical comparison for pharmacokinetic and interaction studies. A p-value < 0.05 indicated a significant difference. The main parameters considered were as follows: AUC0–∞ (the area under the blood concentration-time curve from zero to infinity initial plasma concentration), MRT (the mean residence time), Cmax (peak plasma concentration) and Tmax (time to reach Cmax for oral dose), t1/2 (elimination half-life) (He et al. [2015]). The absolute bioavailability (F) was evaluated as follows: F(%)=(AUCoral×Dosei.v.)/(AUCi.v.×Doseoral)×100%

[3] = Pharmacokinetics of five components in rat plasma after oral administration of RPT, LPT and HPT extracts (UHPLC-MS/MS); conditions: male, SD, in vivo, 1.9 g/kg; for AUC(0-t): AUC0-t; for AUC(0-inf): AUC0-∞; for MRT last: MRT0-t; for half-life: t1/2
Experimental: as §1, §2, §3
Male SD rats were randomly divided into four groups (n = 6 in each group), including the RPT group, LPT group, HPT group and control group. All oral administration samples were mixed with 0.5% CMC-Na (w/v) and then given to rats at a dose equivalent to 1.9 g/kg of RPT extract. The control group was orally treatment with equal volume of 0.5% CMC-Na solution. After a single administration, all blood samples were collected from the orbital vein into heparinized centrifuge tubes before administration (0 h) and at 0.083, 0.17, 0.25, 0.5, 0.75, 1, 1.5, 2, 3, 5, 8 and 12 h after administration and then centrifuged at 4 °C and 11,800×g for 10 min. The separated supernatant samples were preserved at −80 °C until they were measured.
as §4

Compound | Freeze-thaw stability, Mean ([1]; 2 ng/mL) | Freeze-thaw stability, Mean ([1]; 600 ng/mL) | Freeze-thaw stability, Mean ([1]; 1600 ng/mL) | Long-term stability, Mean ([1]; 2 ng/mL) | Long-term stability, Mean ([1]; 600 ng/mL) | Long-term stability, Mean ([1]; 1600 ng/mL) | Short-term stability, Mean ([1]; 2 ng/mL) | Short-term stability, Mean ([1]; 600 ng/mL) | Short-term stability, Mean ([1]; 1600 ng/mL) | Auto-sampler stability, Mean ([1]; 2 ng/mL) | Auto-sampler stability, Mean ([1]; 600 ng/mL) | Auto-sampler stability, Mean ([1]; 1600 ng/mL) | AUCΔ0-t (dose-normalized) ([2]; iv) | AUCΔ0-∞ (dose-normalized) ([2]; iv) | CΔmax (dose-normalized) ([2]; iv) | half-life ([2]; iv) | AUCΔ0-t (dose-normalized) ([2]; po) | AUCΔ0-∞ (dose-normalized) ([2]; po) | CΔmax (dose-normalized) ([2]; po) | half-life ([2]; po) | also measured
COc1cc(/C=C/C(=O)O[C@H]2[C@H](O)[C@@H](CO)O[C@@]2(CO)O[C@H]2O[C@H](CO)[C@@H](O)[C@H](O)[C@H]2O)ccc1O [A5, Sibiricose A5] | 92.1% | 93.5% | 101.6% | 88.6% | 97.9% | 96.6% | 94.4% | 95.2% | 98.3% | 89.4% | 94.2% | 98.7% | 368.32 ± 57.16 ng·h/mL | 368.34 ± 57.18 ng·h/mL | 1784.32 ± 136.39 ng/mL | 1.22 ± 0.07 h | 11.99 ± 2.01 ng·h/mL | 12.01 ± 2.00 ng·h/mL | 9.21 ± 2.30 ng/mL | 1.27 ± 0.55 h | Tmax ([2]; po): 0.25 h; F, absolute bioavailability [2]: 3.25 % of dose; Tmax [3]: 2.60 ± 0.71 h; AUC(0-t) [3]: 552 ± 31.1 ng·h/mL; AUC(0-inf) [3]: 553 ± 47.1 ng·h/mL; Cmax [3]: 169 ± 16.1 ng/mL; MRT last [3]: 2.64 ± 0.18 h; Tmax ([3]; Tmax): 2 h; half-life [3]: 1.23 ± 0.21 h
COc1cc(C=CC(=O)OC2C(O)C(CO)OC2(CO)OC2OC(CO)C(O)C(O)C2O)cc(OC)c1O (centres unmarked) [A6, Sibiricose A6] | 92.4% | 91.5% | 98.3% | 93.5% | 96.3% | 96.5% | 91.5% | 94.7% | 97.4% | 87.5% | 92.1% | 97.3% | 299.15 ± 100.23 ng·h/mL | 299.16 ± 100.23 ng·h/mL | 1204.66 ± 249.66 ng/mL | 0.59 ± 0.1 h | 8.82 ± 2.40 ng·h/mL | 8.82 ± 2.40 ng·h/mL | 4.95 ± 1.64 ng/mL | 0.62 ± 0.16 h | Tmax ([2]; po): 0.5 h; F, absolute bioavailability [2]: 2.95 % of dose; AUC(0-t) [3]: 570 ± 179 ng·h/mL; AUC(0-inf) [3]: 572 ± 179 ng·h/mL; Cmax [3]: 183 ± 30.8 ng/mL; MRT last [3]: 3.21 ± 0.78 h; Tmax ([3]; Tmax): 3.2 ± 1.64 h; half-life [3]: 1.43 ± 0.12 h
COc1cc(C=CC(=O)OCC2OC(OC3(CO)OC(CO)C(O)C3OC(=O)C=Cc3cc(OC)c(O)c(OC)c3)C(O)C(O)C2O)cc(OC)c1O (centres unmarked) [DSS, 3,6′-disinapoyl sucrose] | 89.3% | 97.3% | 99.7% | 95.3% | 97.3% | 93.2% | 95.3% | 98.5% | 98.1% | 92.1% | 97.7% | 98.6% | 106.32 ± 12.09 ng·h/mL | 107.00 ± 12.09 ng·h/mL | 682.88 ± 120.92 ng/mL | 0.98 ± 0.27 h | 2.51 ± 1.07 ng·h/mL | 2.86 ± 1.33 ng·h/mL | 4.39 ± 1.69 ng/mL | 1.01 ± 0.45 h | Tmax ([2]; po): 0.17 h; F, absolute bioavailability [2]: 2.36 % of dose; Cmax [3]: 74.1 ± 30.2 ng/mL
